ChEMBL document CHEMBL4425186, “Discovery and SAR of pyrrolo[2,1-f][1,2,4]triazin-4-amines as potent and selective PI3Kδ inhibitors” (Bioorg Med Chem Lett, 2016)

How the values were obtained:
[1] = Stability in mouse liver microsomes assessed as parent compound remaining at 0.5 uM after 10 mins by high throughput assay; format: ADME, Microsome; conditions: read-out: Stability
[2] = test system: B cell; assay: Antiproliferative activity against human B cells by thymidine incorporation assay; format: functional, cell-based
[3] = molecular target: T1, Phosphatidylinositol 4,5-bisphosphate 3-kinase catalytic subunit delta isoform (Homo sapiens, UniProt O00329)
T1 sequence (O00329 whole entry): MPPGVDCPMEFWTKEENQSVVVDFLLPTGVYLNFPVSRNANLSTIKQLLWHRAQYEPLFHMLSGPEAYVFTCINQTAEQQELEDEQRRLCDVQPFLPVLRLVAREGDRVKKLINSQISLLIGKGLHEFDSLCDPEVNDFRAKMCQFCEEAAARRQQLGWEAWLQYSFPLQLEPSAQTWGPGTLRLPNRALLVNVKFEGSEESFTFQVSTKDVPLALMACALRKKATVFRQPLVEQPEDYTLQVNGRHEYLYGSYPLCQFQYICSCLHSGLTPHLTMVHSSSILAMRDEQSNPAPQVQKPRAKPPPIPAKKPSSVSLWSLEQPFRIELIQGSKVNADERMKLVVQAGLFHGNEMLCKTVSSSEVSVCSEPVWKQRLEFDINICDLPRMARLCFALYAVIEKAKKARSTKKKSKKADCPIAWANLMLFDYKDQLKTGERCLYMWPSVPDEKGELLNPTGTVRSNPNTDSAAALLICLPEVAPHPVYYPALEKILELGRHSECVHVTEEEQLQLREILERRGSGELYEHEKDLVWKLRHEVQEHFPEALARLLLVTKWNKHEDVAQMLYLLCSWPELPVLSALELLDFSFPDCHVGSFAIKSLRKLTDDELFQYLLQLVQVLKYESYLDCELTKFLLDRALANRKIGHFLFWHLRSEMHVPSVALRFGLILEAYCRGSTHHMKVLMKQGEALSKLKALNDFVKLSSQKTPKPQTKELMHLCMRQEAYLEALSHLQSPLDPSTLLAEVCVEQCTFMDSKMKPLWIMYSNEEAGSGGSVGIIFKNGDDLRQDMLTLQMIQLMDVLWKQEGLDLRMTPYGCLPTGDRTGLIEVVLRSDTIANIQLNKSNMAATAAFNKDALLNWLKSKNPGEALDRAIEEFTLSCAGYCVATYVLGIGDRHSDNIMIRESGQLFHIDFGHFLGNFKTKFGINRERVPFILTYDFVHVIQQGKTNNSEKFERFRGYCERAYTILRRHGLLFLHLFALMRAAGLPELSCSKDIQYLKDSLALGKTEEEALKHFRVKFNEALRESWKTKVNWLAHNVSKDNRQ

[4] = test system: Cytochrome P450; assay: Inhibition of Cytochrome P450 (unknown origin); format: ADME, protein assay; conditions: human
[5] = test system: Mus musculus; assay: Antiarthritic activity in DBA/1 mouse model of collagen-induced arthritis assessed as reduction in anti-collagen IgG titres at 1 mg/kg/day, po pretreated for 2 hrs followed by first collagen injection measured after second collagen injection on day 21 by ELISA relative to control; format: functional; set-up: scale not given: the % may be the effect or the level left
[6] = test system: Mus musculus; assay: Antiarthritic activity in DBA/1 mouse model of collagen-induced arthritis assessed as reduction in clinical arthritic scores at 1 mg/kg/day, po pretreated for 2 hrs followed by first collagen injection measured after second collagen injection on day 21 relative to control; format: functional; set-up: scale not given: the % may be the effect or the level left
[7] = Stability in rat liver microsomes assessed as parent compound remaining at 0.5 uM after 10 mins by high throughput assay; format: ADME, Microsome; conditions: read-out: Stability
[8] = molecular target: T1, Phosphatidylinositol 4,5-bisphosphate 3-kinase catalytic subunit delta isoform; assay: Inhibition of PI3Kdelta in BCR-stimulated human B cells assessed as suppression of CD86 expression after 18 hrs by FACS analysis
[9] = test system: Mus musculus; assay: Antiarthritic activity in DBA/1 mouse model of collagen-induced arthritis assessed as reduction in anti-collagen IgG titres at 100 mg/kg, po pretreated for 2 hrs followed by first collagen injection measured after second collagen injection on day 21 by ELISA relative to control; format: functional; set-up: scale not given: the % may be the effect or the level left
[10] = Clearance in mouse; format: ADME, organism-based; conditions: in vivo
[11] = Cmax in mouse at 30 mg/kg, po; format: ADME, organism-based; set-up: dose 30 mg/kg, route oral; conditions: in vivo
[12] = AUC in mouse at 30 mg/kg, po; format: ADME, organism-based; conditions: in vivo
[13] = Volume of distribution in mouse; format: ADME, organism-based; conditions: in vivo
[14] = Oral bioavailability in mouse; format: ADME, organism-based; conditions: in vivo
[15] = test system: Mus musculus; assay: Antiarthritic activity in DBA/1 mouse model of collagen-induced arthritis assessed as reduction in clinical arthritic scores at 100 mg/kg, po pretreated for 2 hrs followed by first collagen injection measured after second collagen injection on day 21 relative to control; format: functional; set-up: scale not given: the % may be the effect or the level left
[16] = Half life in mouse; format: ADME, organism-based; conditions: in vivo

Compound	remaining at 10 min, 0.5 µM [1] [%]	IC50 [3] [nM]	IC50 [2] [nM]	further results
Nc1ncnn2c(-c3cccc(C4(N5CCOCC5)COC4)c3)cc(-c3ccnn3C3CCOCC3)c12	6	–	1	–
CC(C)[C@H]1COC(=O)N1Cc1cccc(-c2cc(-c3ccnn3C3CCOCC3)c3c(N)ncnn23)c1	0.09	–	–	–
CN1C[C@H](O)C[C@@H]1c1cccc(-c2cc(-c3ccnn3C3CCOCC3)c3c(N)ncnn23)c1	65	–	87	–
CN(C)C1(c2cccc(-c3cc(-c4ccnn4C4CCOCC4)c4c(N)ncnn34)c2)COC1	70	–	9	–
CN(Cc1cnc2nc(N)nc(N)c2n1)c1ccc(C(=O)N[C@@H](CCC(=O)O)C(=O)O)cc1 [METHOTREXATE]	–	–	–	Activity [5]: 63%; Activity [6]: 83%
CC(C)C(=O)N1C[C@H](O)C[C@H]1c1cccc(-c2cc(-c3ccnn3C3CCOCC3)c3c(N)ncnn23)c1	4	1	8	IC50 [8]: 110 nM
Cn1cc(-c2cc(-c3ccnn3C3CCCCC3)c3c(N)ncnn23)cn1	–	11	–	–
CN1CCN(Cc2cccc(-c3cc(-c4ccnn4C4CCOCC4)c4c(N)ncnn34)c2)CC1	100	4	28	IC50 [8]: 721 nM
NCc1ccc(-c2cc(-c3ccnn3C3CCCCC3)c3c(N)ncnn23)cc1	–	26	–	–
CC1(C)OC(=O)NC1c1cccc(-c2cc(-c3ccnn3C3CCOCC3)c3c(N)ncnn23)c1 (centres undefined)	45	–	31	–
Nc1ncnn2c(-c3ccc(CO)cc3)cc(-c3ccnn3C3CCCCC3)c12	–	31	–	–
Nc1ncnn2c(-c3cccc(CN4CCCC4=O)c3)cc(-c3ccnn3C3CCOCC3)c12	19	–	35	–
Nc1ncnn2c(-c3cccc(C(=O)N4CCCC4)c3)cc(-c3ccnn3C3CCCCC3)c12	–	2	–	IC50 [8]: 36 nM
Nc1ncnn2ccc(-c3ccnn3C3CCCCC3)c12	–	405	–	–
CS(=O)(=O)NCc1cccc(-c2cc(-c3ccnn3C3CCOCC3)c3c(N)ncnn23)c1	–	–	99	–
CN(C)C(C)(C)c1cccc(-c2cc(-c3ccnn3C3CCOCC3)c3c(N)ncnn23)c1	58	–	6	Activity [9]: 80%; clearance [10]: 82.1 mL/min/kg; Cmax [11]: 2890 nM; AUC [12]: 6.23 µM·h; Vd [13]: 6.2 L/kg; bioavailability [14]: 46%; Activity [15]: 100%; half-life [16]: 1 h
CC(C)Cn1nccc1-c1cc(-c2cccnc2)n2ncnc(N)c12	–	252	–	–

More lines, main results first:

remaining at 10 min, 0.5 µM [1] [%]	IC50 [3] [nM]	Compound	IC50 [2] [nM]	further results
–	576	Nc1ncnn2c(-c3ccccc3)cc(-c3ccnn3C3CCCCC3)c12	–	–
–	22	Nc1ncnn2c(-c3cccnc3)cc(-c3ccnn3C3CCCCC3)c12	–	inhibition (INH) [4]: Not Active
16	22	Nc1ncnn2c(-c3ccncc3)cc(-c3ccnn3C3CCCCC3)c12	–	remaining at 10 min, 0.5 µM [7]: 46%
–	42	Nc1ncnn2c(-c3cccnc3)cc(-c3ccnn3C3CCOCC3)c12	–	–
–	163	Nc1ncnn2c(-c3cccnc3)cc(-c3ccnn3C3CCS(=O)(=O)CC3)c12	–	–
–	14	Nc1ncnn2c(-c3cccc(S(N)(=O)=O)c3)cc(-c3ccnn3C3CCCCC3)c12	–	–
–	27	Nc1ncnn2c(-c3cccc(CO)c3)cc(-c3ccnn3C3CCCCC3)c12	–	–
–	29	Nc1ncnn2c(-c3cccnc3)cc(-c3ccnn3C3CCCC3)c12	–	–
–	231	Nc1ncnn2c(-c3cccnc3)cc(-c3ccnn3C3CCCCCC3)c12	–	–
–	150	CN1CCC(n2nccc2-c2cc(-c3cccnc3)n3ncnc(N)c23)CC1	–	–
–	3	CN(C)c1cccc(-c2cc(-c3ccnn3C3CCCCC3)c3c(N)ncnn23)c1	–	IC50 [8]: 16 nM
